Laboratory results taken from US12599136B2, “Substituted isophthalic acid diamides and their use as herbicides” (Bayer Aktiengesellschaft, priority 2020, dated 2026).

How the values were obtained:
Format in all cases: in vivo
Amaranthus retroflexus [1] = assay: Pre-emergence herbicidal action against AMARE; conditions: visual score after 3 weeks vs untreated controls
Description: (§1) Seeds of monocotyledonous and dicotyledonous weed plants and crop plants are laid out in sandy loam soil in wood-fiber pots and covered with soil. The compounds of the invention, formulated in the form of wettable powders (WP) or as emulsion concentrates (EC), are then applied to the surface of the covering soil in the form of an aqueous suspension or emulsion at a water application rate equivalent to 600 to 800 l/ha, with addition of 0.2% wetting agent. After the treatment, the pots are placed in a greenhouse and kept under good growth conditions for the trial plants. The damage to the test plants is scored visually after a test period of 3 weeks by comparison with untreated controls (herbicidal activity in percent (%): 100% activity=the plants have died, 0% activity=like control plants). […] The tables below illustrate, in an illustrative manner, the post-emergence herbicidal action of the compounds of the invention, the herbicidal activity being stated in percent.

Veronica persica [2] = assay: Post-emergence herbicidal action against VERPE; conditions: 20 g/ha, visual assessment about 3 weeks after treatment
Description: (§2) Seeds of monocotyledonous and dicotyledonous weed and crop plants are laid out in sandy loam soil in wood-fiber pots, covered with soil and cultivated in a greenhouse under good growth conditions. 2 to 3 weeks after sowing, the test plants are treated at the one-leaf stage. The compounds of the invention, formulated in the form of wettable powders (WP) or as emulsion concentrates (EC), are then sprayed onto the green parts of the plants in the form of an aqueous suspension or emulsion at a water application rate equivalent to 600 to 800 l/ha, with addition of 0.2% wetting agent. After the test plants have been left to stand in the greenhouse under optimal growth conditions for about 3 weeks, the action of the preparations is assessed visually in comparison to untreated controls (herbicidal action in percent (%): 100% activity=the plants have died, 0% activity=like control plants). […] The tables below illustrate, in an illustrative manner, the post-emergence herbicidal action of the compounds of the invention, the herbicidal activity being stated in percent.

Alopecurus myosuroides [3] = assay: Pre-emergence herbicidal action against ALOMY; conditions: visual score after 3 weeks vs untreated controls
Description: as §1

Echinochloa crus-galli [4] = assay: Post-emergence herbicidal action against ECHCG; conditions: 20 g/ha, visual assessment about 3 weeks after treatment
Description: as §2

Setaria viridis [5] = assay: Pre-emergence herbicidal action against SETVI
Description: as §1

Abutilon theophrasti [6] = assay: Post-emergence herbicidal action against ABUTH
Description: as §2

Pharbitis purpurea = assay: Post-emergence herbicidal action against PHBPU; conditions: 20 g/ha, visual assessment about 3 weeks after treatment
Description: as §2

Matricaria inodora [7] = assay: Pre-emergence herbicidal action against MATIN; conditions: visual score after 3 weeks vs untreated controls
Description: as §1

Setaria viridis [8] = assay: Post-emergence herbicidal action against SETVI; conditions: visual assessment about 3 weeks after treatment
Description: as §2

Viola tricolor [9] = assay: Post-emergence herbicidal action against VIOTR
Description: as §2

Amaranthus retroflexus [10] = assay: Post-emergence herbicidal action against AMARE; conditions: visual assessment about 3 weeks after treatment
Description: as §2

Abutilon theophrasti [11] = assay: Pre-emergence herbicidal action against ABUTH; conditions: visual score after 3 weeks vs untreated controls
Description: as §1

Echinochloa crus-galli [12] = assay: Pre-emergence herbicidal action against ECHCG; conditions: 80 g/ha; visual score after 3 weeks vs untreated controls
Description: as §1

Alopecurus myosuroides [13] = assay: Post-emergence herbicidal action against ALOMY; conditions: 20 g/ha
Description: as §2

Matricaria inodora [14] = assay: Post-emergence herbicidal action against MATIN; conditions: visual assessment about 3 weeks after treatment
Description: as §2

Viola tricolor [15] = assay: Pre-emergence herbicidal action against VIOTR
Description: as §1

Veronica persica [16] = assay: Pre-emergence herbicidal action against VERPE; conditions: 80 g/ha
Description: as §1

Avena fatua = assay: Pre-emergence herbicidal action against AVEFA; conditions: 80 g/ha; visual score after 3 weeks vs untreated controls
Description: as §1

| Compound | Pre-emergence action against AMARE (Amaranthus retroflexus [1]; 20 g/ha) [%] | Pre-emergence action against AMARE (Amaranthus retroflexus [1]; 80 g/ha) [%] | Post-emergence action against VERPE in % (Veronica persica [2]) [%] | Pre-emergence action against ALOMY (Alopecurus myosuroides [3]; 80 g/ha) [%] | Post-emergence action against ECHCG in % (Echinochloa crus-galli [4]) [%] | Pre-emergence action against SETVI (Setaria viridis [5]; 80 g/ha) [%] | Post-emergence action against ABUTH (Abutilon theophrasti [6]; 5 g/ha) [%] | Post-emergence action against ABUTH (Abutilon theophrasti [6]; 20 g/ha) [%] | Post-emergence action against PHBPU in % (Pharbitis purpurea) [%] | Pre-emergence action against MATIN (Matricaria inodora [7]; 20 g/ha) [%] | Pre-emergence action against MATIN (Matricaria inodora [7]; 80 g/ha) [%] | Post-emergence action against SETVI in % (Setaria viridis [8]; 20 g/ha) [%] | Post-emergence action against VIOTR in % (Viola tricolor [9]; 20 g/ha) [%] | Post-emergence action against AMARE in % (Amaranthus retroflexus [10]; 5 g/ha) [%] | Post-emergence action against AMARE in % (Amaranthus retroflexus [10]; 20 g/ha) [%] | Pre-emergence action against ABUTH (Abutilon theophrasti [11]; 80 g/ha) [%] | Pre-emergence action against ECHCG (Echinochloa crus-galli [12]) [%] | Post-emergence action against MATIN in % (Matricaria inodora [14]; 20 g/ha) [%] | Pre-emergence action against VIOTR (Viola tricolor [15]; 80 g/ha) [%] | Pre-emergence action against ABUTH (Abutilon theophrasti [11]; 20 g/ha) [%] | other results |
| --- | --- | --- | --- | --- | --- | --- | --- | --- | --- | --- | --- | --- | --- | --- | --- | --- | --- | --- | --- | --- | --- |
| Cc1c(C(=O)Nc2nnnn2C)ccc(C(F)F)c1C(=O)N(C)C [Example 1-50] | 90 | 100 | 80 | 80 | 80 | 80 | 80 | 90 | 80 | 80 | 90 | 80 | 80 | 90 | 100 | 100 | 80 |  |  |  |  |
| CCN(C)C(=O)c1c(C(F)F)ccc(C(=O)Nc2nnnn2C)c1C [Example 1-51] | 80 | 100 | 80 | 80 | 80 | 80 | 80 | 80 | 90 |  | 90 | 80 | 90 | 100 | 100 | 100 | 90 | 80 | 90 |  | Post-emergence action against ALOMY (Alopecurus myosuroides [13]): 80%; Post-emergence action against SETVI in % (Setaria viridis [8]; 5 g/ha): 80%; Post-emergence action against VIOTR in % (Viola tricolor [9]; 5 g/ha): 80%; Pre-emergence action against VERPE (Veronica persica [16]): 80% |
| Cn1nnnc1NC(=O)c1ccc(C(F)F)c(C(=O)N(C2CC2)C2CC2)c1Cl [Example 1-175] | 80 | 100 |  |  |  |  | 80 | 90 |  | 90 | 90 |  |  | 100 | 100 | 100 |  | 90 | 90 | 90 |  |
| CCOC(=O)[C@@H]1CCCN1C(=O)c1c(C(F)F)ccc(C(=O)Nc2nnnn2C)c1Cl [Example 1-402] |  | 100 |  |  |  |  |  |  |  |  | 90 |  |  |  | 90 |  |  |  |  |  |  |
| CCN(CC)C(=O)c1c(C(F)F)ccc(C(=O)Nc2nnnn2CC)c1C [Example 2-59] | 80 | 100 | 90 | 90 | 90 |  | 90 | 90 |  | 90 | 100 | 90 | 90 | 100 | 100 | 100 | 90 | 90 | 100 | 100 | Post-emergence action against ALOMY (Alopecurus myosuroides [13]): 90%; Post-emergence action against MATIN in % (Matricaria inodora [14]; 5 g/ha): 80%; Post-emergence action against SETVI in % (Setaria viridis [8]; 5 g/ha): 90%; Post-emergence action against VIOTR in % (Viola tricolor [9]; 5 g/ha): 80%; Pre-emergence action against VIOTR (Viola tricolor [15]; 20 g/ha): 100%; Pre-emergence action against VERPE (Veronica persica [16]): 90% |
| CCn1nnnc1NC(=O)c1ccc(C(F)(F)F)c(C(=O)N(C2CC2)C2CC2)c1Cl [Example 2-144] |  | 100 |  |  |  |  |  |  |  |  | 100 |  |  | 90 | 90 | 100 |  | 80 | 100 | 90 |  |
| CCn1nnnc1NC(=O)c1ccc(C(F)F)c(C(=O)N(C2CC2)C2CC2)c1Cl [Example 2-175] | 100 | 100 |  | 90 |  |  | 80 | 90 |  | 90 | 100 |  | 80 | 100 | 100 | 100 |  |  | 90 | 100 | Pre-emergence action against ALOMY (Alopecurus myosuroides [3]; 20 g/ha): 80% |
| CCn1nnnc1NC(=O)c1ccc(Br)c(C(=O)N(C)C)c1Cl [Example 2-191] | 100 | 100 |  | 100 |  | 100 | 90 | 90 | 80 | 90 | 100 | 100 | 80 | 100 | 100 | 100 | 100 |  | 80 | 90 | Pre-emergence action against ALOMY (Alopecurus myosuroides [3]; 20 g/ha): 90%; Post-emergence action against ALOMY (Alopecurus myosuroides [13]): 100%; Pre-emergence action against AVEFA (Avena fatua): 90%; Pre-emergence action against SETVI (Setaria viridis [5]; 20 g/ha): 100%; Post-emergence action against SETVI in % (Setaria viridis [8]; 5 g/ha): 100% |
